Source: patent publication US10919841B2, “Monoamine reuptake inhibitors” (Research Triangle Institute, priority 2009, dated 2021)
“Also recorded” adds a separate entry of the source. Like-named read-outs stand apart in the source and are kept apart here.

Key:
serotonin transporter = serotonin transporter (Rattus norvegicus, UniProt P31652); assay: 5-HT releasing/substrate activity using rat brain synaptosomes
(h)DAT [1] = target: T1, (h)DAT (Homo sapiens, UniProt Q01959); assay: block of [3H]dopamine reuptake in HEK-(h)DAT cells; format: cell-based
T1 construct: expressed in transfected cells
T1 sequence (Q01959 whole entry): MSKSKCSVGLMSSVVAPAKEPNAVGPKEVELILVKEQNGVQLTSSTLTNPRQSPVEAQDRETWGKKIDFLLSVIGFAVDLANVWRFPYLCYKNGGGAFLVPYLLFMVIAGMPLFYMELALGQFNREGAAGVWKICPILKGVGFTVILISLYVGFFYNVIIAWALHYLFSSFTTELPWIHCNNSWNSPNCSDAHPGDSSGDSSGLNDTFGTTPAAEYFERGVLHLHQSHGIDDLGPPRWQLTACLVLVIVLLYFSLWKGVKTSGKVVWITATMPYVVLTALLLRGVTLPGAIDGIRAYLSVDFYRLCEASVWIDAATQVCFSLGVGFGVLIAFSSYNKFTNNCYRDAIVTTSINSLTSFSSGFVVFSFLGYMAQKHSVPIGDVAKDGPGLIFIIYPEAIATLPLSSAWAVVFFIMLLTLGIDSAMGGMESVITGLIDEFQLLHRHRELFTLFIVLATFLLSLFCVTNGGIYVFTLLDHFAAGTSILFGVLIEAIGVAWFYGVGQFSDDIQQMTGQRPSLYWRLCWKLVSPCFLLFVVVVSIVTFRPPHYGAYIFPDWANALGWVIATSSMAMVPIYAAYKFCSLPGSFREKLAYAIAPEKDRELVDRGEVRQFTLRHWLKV

mice [2] = assay: locomotor activity, 1-h observation protocol; format: in vivo; conditions: for Emax / ED50: Mus musculus; for Emax: 0.5 h, read-out: Locomotor Activity 1-Hour % Peak Cocaine; for ED50 / Locomotor Activity 1-Hour ED50: dose to produce 50% of the compound's maximal effect, 1-h
(h)SERT [3] = target: T2, (h)SERT (Homo sapiens, UniProt P31645); conditions: read-out: Binding, Ki SERT
T2 construct: expressed in transfected cells; host or cells: HEK293
T2 sequence (P31645 whole entry): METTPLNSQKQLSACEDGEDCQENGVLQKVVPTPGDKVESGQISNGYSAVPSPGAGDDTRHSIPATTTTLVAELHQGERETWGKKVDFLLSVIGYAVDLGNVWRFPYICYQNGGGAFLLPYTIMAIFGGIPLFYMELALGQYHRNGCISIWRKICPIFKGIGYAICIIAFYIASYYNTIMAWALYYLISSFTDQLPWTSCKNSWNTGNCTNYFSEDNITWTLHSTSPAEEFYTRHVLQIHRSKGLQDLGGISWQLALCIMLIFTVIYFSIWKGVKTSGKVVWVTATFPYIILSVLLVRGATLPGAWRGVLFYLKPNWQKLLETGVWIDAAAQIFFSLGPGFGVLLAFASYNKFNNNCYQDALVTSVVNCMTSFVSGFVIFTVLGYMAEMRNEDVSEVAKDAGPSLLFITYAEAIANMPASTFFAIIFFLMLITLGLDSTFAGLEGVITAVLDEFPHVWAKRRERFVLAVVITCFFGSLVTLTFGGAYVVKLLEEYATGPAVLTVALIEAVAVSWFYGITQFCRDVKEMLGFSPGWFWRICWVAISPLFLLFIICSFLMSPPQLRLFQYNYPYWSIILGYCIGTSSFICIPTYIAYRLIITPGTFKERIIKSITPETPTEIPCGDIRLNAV

(h)NET [4] = target: T3, (h)NET (Homo sapiens, UniProt P23975); assay: block of [3H]norepinephrine reuptake in HEK-(h)NET cells; conditions: for times better as NE uptake inhibitors than bupropion: relative to bupropion
T3 sequence (P23975 whole entry): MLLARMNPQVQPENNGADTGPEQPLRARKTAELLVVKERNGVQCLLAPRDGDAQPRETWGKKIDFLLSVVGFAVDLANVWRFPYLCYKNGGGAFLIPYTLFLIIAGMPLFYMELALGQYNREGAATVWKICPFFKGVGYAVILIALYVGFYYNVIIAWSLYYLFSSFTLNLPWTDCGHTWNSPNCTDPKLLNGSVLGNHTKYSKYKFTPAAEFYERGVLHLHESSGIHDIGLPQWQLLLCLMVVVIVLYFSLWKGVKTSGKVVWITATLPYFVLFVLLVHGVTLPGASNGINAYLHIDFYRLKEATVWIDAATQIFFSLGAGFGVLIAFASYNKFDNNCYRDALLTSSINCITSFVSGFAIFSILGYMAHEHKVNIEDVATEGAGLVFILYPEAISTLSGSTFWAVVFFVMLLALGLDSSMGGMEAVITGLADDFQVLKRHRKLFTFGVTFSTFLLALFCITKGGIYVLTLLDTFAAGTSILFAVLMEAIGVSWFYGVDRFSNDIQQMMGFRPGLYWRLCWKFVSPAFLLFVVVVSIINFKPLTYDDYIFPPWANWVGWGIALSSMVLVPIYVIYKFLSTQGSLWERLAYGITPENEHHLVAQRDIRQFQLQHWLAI

(h)SERT [5] = target: T2, (h)SERT; assay: block of [3H]serotonin reuptake in HEK-(h)SERT cells; format: cell-based
mice [6] = assay: locomotor activity, 8-h time course protocol; format: in vivo; conditions: for locomotor stimulant activity across the 1-h and 8-h protocols, in words: 1-h and 8-h tests compared; for Emax / ED50: Mus musculus; for Emax: read-out: Locomotor Activity 8-Hour % Peak Cocaine, percent of cocaine's maximal effect, 30 min period of maximum stimulation; for ED50: read-out: Locomotor Activity 8-Hour ED50; for Locomotor Activity 8-Hour Time, min Period, length: duration of locomotor activity; for Locomotor Activity 8-Hour Time, min Period, max: time period of maximum effect
(h)NET [7] = target: T3, (h)NET; assay: competition binding with [125I]RTI-55 at (h)NET stably expressed in HEK293 cells; conditions: read-out: Binding, Ki NET; mean ± standard error of three independent experiments
rats [8] = assay: cocaine discrimination (2-lever operant), i.p. administration; conditions: for responders at 5 mg/kg / responders at 10 mg/kg / responders at 25 mg/kg / ED50 / responders at 50 mg/kg / responders at 100 mg/kg: Rattus norvegicus, ip; for responders at 5 mg/kg / responders at 10 mg/kg / responders at 25 mg/kg / responders at 50 mg/kg / responders at 100 mg/kg: read-out: % cocaine lever responding; for ED50: read-out: Full Generalization ED50
(h)DAT [9] = target: T1, (h)DAT; assay: competition binding with [125I]RTI-55 at (h)DAT stably expressed in HEK293 cells; conditions: mean ± standard error of three independent experiments
rats [10] = assay: cocaine discrimination time-course study, oral administration; conditions: for ED50: Rattus norvegicus, po, 0.75 h; for generalization to cocaine: p.o.
[11] = mean ± standard error of three independent experiments, read-out: Uptake, IC50 [3H]DA
[12] = mean ± standard error of three independent experiments
[13] = read-out: IC50 for NE uptake inhibition, [3H]NE
[14] = dose to produce 50% of the compound's maximal effect, 8-h
[15] = read-out: Uptake, IC50 [3H]5-HT
[16] = [3H]DA, read-out: IC50 for DA uptake inhibition

Sequence of serotonin transporter (P31652 whole entry): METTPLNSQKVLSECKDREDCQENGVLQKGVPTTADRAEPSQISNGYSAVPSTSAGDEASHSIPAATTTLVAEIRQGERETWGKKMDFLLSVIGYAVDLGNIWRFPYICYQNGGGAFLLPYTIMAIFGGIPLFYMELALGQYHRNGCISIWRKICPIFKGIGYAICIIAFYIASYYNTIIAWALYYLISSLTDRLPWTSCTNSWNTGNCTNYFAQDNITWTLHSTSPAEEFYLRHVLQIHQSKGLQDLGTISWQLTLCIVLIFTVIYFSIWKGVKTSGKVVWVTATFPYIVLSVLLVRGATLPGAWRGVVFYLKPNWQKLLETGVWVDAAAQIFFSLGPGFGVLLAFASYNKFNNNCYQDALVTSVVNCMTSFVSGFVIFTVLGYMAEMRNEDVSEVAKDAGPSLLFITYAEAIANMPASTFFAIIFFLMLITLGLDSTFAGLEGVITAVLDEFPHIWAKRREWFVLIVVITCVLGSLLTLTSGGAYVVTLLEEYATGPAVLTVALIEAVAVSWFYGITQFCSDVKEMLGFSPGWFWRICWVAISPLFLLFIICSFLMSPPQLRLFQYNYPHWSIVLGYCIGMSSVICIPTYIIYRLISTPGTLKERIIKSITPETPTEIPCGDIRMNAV

In the case of CC(NC1CC1)C(=O)c1cccc(Br)c1 (centres unmarked), the EC50 (serotonin transporter) is reported as 383 ± 56 nM.
Cc1cccc(C(=O)C(C)NC2CC2)c1 (centres unmarked) showed an EC50 (serotonin transporter) of 890 ± 63 nM.
Molecule COc1cccc(C(=O)C(C)NC2CC2)c1 (centres unmarked) has an EC50 (serotonin transporter) of 676 ± 197 nM.
With CC(NC1CC1)C(=O)c1ccc(Cl)cc1 (centres unmarked) the EC50 (serotonin transporter) was 2700 ± 314 nM.
For Cc1ccc(C(=O)C(C)NC2CC2)cc1 (centres unmarked), the EC50 (serotonin transporter) was 707 ± 69 nM.
For CC(NC1CC1)C(=O)c1ccc(Cl)c(Cl)c1 (centres unmarked), the EC50 (serotonin transporter) was 148 ± 35 nM.
Work on Cc1ccc(C(=O)C(C)NC2CC2)cc1Cl (centres unmarked) yielded an EC50 (serotonin transporter) of 139 ± 30 nM.
CCC(NC(C)(C)C)C(=O)c1ccc(Cl)c(Cl)c1 (centres unmarked) [Compound 2aa, 2-(tert-Butylamino)-3′,4′-dichlorobutyrophenone] was tested, and the “DA uptake inhibition, in words” value ((h)DAT [1]) was “slightly lower IC50 values than 2j”, the IC50 ((h)DAT [1]; [11]) was 0.175 µM and the Emax (mice [2]) was 41%. The ED50 (mice [2]) was 50.3 mg/kg, the Ki ((h)SERT [3]; [12]) was 860 nM and the IC50 ((h)NET [4]; [13]) was 0.135 µM. The “times better as NE uptake inhibitors than bupropion” value ((h)NET [4]) was 10 times, the IC50 ((h)SERT [5]; mean ± standard error of three independent experiments, read-out: Uptake, IC50 [3H]5-HT) was 0.79 µM and the “locomotor stimulant activity across the 1-h and 8-h protocols, in words” value (mice [6]) was “weak stimulants in both tests; also recorded: moderate activity in the 1-h test with increased activity in the time-course study”. The Emax (mice [6]) was 84%, the ED50 (mice [6]; [14]) was 42.2 mg/kg and the “Locomotor Activity 8-Hour Time, min Period, length” value (mice [6]) was 60 min. The “Locomotor Activity 8-Hour Time, min Period, max” value (mice [6]) was 0 to 30 min, the Ki ((h)NET [7]) was 2240 nM and the responders at 5 mg/kg (rats [8]) was 1%. For the same molecule, the responders at 10 mg/kg (rats [8]) was 10%, the responders at 25 mg/kg (rats [8]) was 10% and the ED50 (rats [8]) was 15 mg/kg. The Ki ((h)DAT [9]) was 278 nM.
With CCCC(NC(C)(C)C)C(=O)c1ccc(Cl)c(Cl)c1 (centres unmarked) [Compound 2bb, 2-(tert-Butylamino)-3′,4′-dichloropentanophenone] the “DA uptake inhibition, in words” value ((h)DAT [1]) was “slightly lower IC50 values than 2j”, the IC50 ((h)DAT [1]; [11]) was 0.084 µM and the Emax (mice [2]) was 49%. It also gave an ED50 (mice [2]) of 18.1 mg/kg, a Ki ((h)SERT [3]) of 842 nM and an IC50 ((h)NET [4]; [13]) of 0.043 µM. The “times better as NE uptake inhibitors than bupropion” value ((h)NET [4]) was 34 times, the IC50 ((h)SERT [5]; [15]) was 1.58 µM and the ED50 (rats [10]) was 17.3 mg/kg. The “locomotor stimulant activity across the 1-h and 8-h protocols, in words” value (mice [6]) was “moderate activity in the 1-h test with increased activity in the time-course study”, the Emax (mice [6]) was 100% and the ED50 (mice [6]; [14]) was 35 mg/kg. For the same molecule, the “Locomotor Activity 8-Hour Time, min Period, length” value (mice [6]) was 470 min, the “Locomotor Activity 8-Hour Time, min Period, max” value (mice [6]) was 0 to 30 min and the Ki ((h)NET [7]) was 520 nM. For the same molecule, the responders at 5 mg/kg (rats [8]) was 1%, the responders at 10 mg/kg (rats [8]) was 17% and the responders at 25 mg/kg (rats [8]) was 10%. For the same molecule, the ED50 (rats [8]) was 6.95 mg/kg and the Ki ((h)DAT [9]) was 43.7 nM.
With CC(C(=O)c1cccc(Cl)c1)N1CCCCC1 (centres unmarked) [Compound 2ff, 2-Piperidino-3′-chloropropiophenone] the IC50 ((h)DAT [1]; [16]) was 1.03 µM, the “Locomotor Activity 1-Hour ED50” value (mice [2]) was “NE^f” and the Ki ((h)SERT [3]) was 5480 nM. The IC50 ((h)NET [4]; read-out: Uptake, IC50 [3H]NE, mean ± standard error of three independent experiments) was 4.8 µM, the IC50 ((h)SERT [5]; [15]) was 0.97 µM and the “locomotor stimulant activity across the 1-h and 8-h protocols, in words” value (mice [6]) was “inactive in the 1-h test but showed weak stimulant activity in the 8-h protocol”. For the same molecule, the Emax (mice [6]) was 45%, the ED50 (mice [6]; [14]) was 15 mg/kg and the “Locomotor Activity 8-Hour Time, min Period, length” value (mice [6]) was 470 min. For the same molecule, the “onset and duration of locomotor activity, in words” value (mice [6]; mouse, in vivo) was “very slow onset of stimulatory activity”, the Ki ((h)NET [7]) was 4760 nM and the responders at 10 mg/kg (rats [8]) was 6%. The responders at 25 mg/kg (rats [8]) was 17%, the responders at 50 mg/kg (rats [8]) was 33% and the responders at 100 mg/kg (rats [8]) was 34%. For the same molecule, the Ki ((h)DAT [9]) was 1150 nM.
In the case of CC(C)(C)NC(CCC1CCCCC1)C(=O)c1cccc(Cl)c1 (centres unmarked) [Compound 2u, 2-(N-tert-Butylamino)-3′-chlorophenyl-4-cyclohexylbutanophenone], the IC50 ((h)DAT [1]; [16]) is reported as > 10 µM, the IC50 ((h)DAT [1]; bound given in μM, read-out: Uptake, IC50 [3H]DA) is reported as > 10 µM and the “Locomotor Activity 1-Hour ED50” value (mice [2]) is reported as “NE^f”. The Ki ((h)SERT [3]; [12]) was 6200 nM, the IC50 ((h)NET [4]; read-out: Uptake, IC50 [3H]NE, bound given in μM) was > 10 µM and the IC50 ((h)SERT [5]; bound given in μM, read-out: Uptake, IC50 [3H]5-HT) was > 10 µM. For the same molecule, the “locomotor stimulant activity across the 1-h and 8-h protocols, in words” value (mice [6]) was “inactive in the 1-h test but showed weak stimulant activity in the 8-h protocol”, the “Locomotor Activity 8-Hour ED50” value (mice [6]; [14]) was 15.3 mg/kg and the “Locomotor Activity 8-Hour Time, min Period, length” value (mice [6]) was 60 to 160 min. For the same molecule, the “Locomotor Activity 8-Hour % Peak Cocaine” value (mice [6]; percent of cocaine's maximal effect, 30 min period of maximum stimulation) was 47%, the “Locomotor Activity 8-Hour Time, min Period, max” value (mice [6]) was 60 to 90 min and the Ki ((h)NET [7]) was 3800 nM. The “% cocaine lever responding” value (rats [8]; rats, IP, dose 5 mg/kg) was 0%, the “% cocaine lever responding” value (rats [8]; rats, IP, dose 10 mg/kg) was 0% and the “% cocaine lever responding” value (rats [8]; rats, IP, dose 25 mg/kg) was 70%. The “Comments (response rate)” value (rats [8]; rats, IP, response rate relative to vehicle control) was “B^b” and the Ki ((h)DAT [9]) was 1700 nM.
With CC(NC1CC1)C(=O)c1cccc(Cl)c1 (centres unmarked) [Compound 2x, 2-(N-Cyclopropylamino)-3′-chloropropiophenone] the IC50 ((h)DAT [1]; [16]) was 0.265 µM, the “times more potent than bupropion as DA uptake inhibitor” value ((h)DAT [1]; relative to bupropion) was 3.6 times and the Emax (mice [2]) was 94%. It also gave an ED50 (mice [2]) of 14.7 mg/kg, a Ki ((h)SERT [3]) of 3420 nM and an IC50 ((h)NET [4]; [13]) of 2.15 µM. The IC50 ((h)SERT [5]; read-out: IC50 for 5HT uptake inhibition) was 3.18 µM, the ED50 (rats [10]) was 13.3 mg/kg and the generalization to cocaine (rats [10]; 45 min, 10 mg/kg) was “partial generalization”. The generalization to cocaine (rats [10]; 45 min, 25 mg/kg) was “partial generalization”, the generalization to cocaine (rats [10]; 90 min, 25 mg/kg) was “full generalization” and the generalization to cocaine (rats [10]; 180 min, 25 mg/kg) was “full generalization”. The “locomotor stimulant activity across the 1-h and 8-h protocols, in words” value (mice [6]) was “strong stimulants in both studies”, the Emax (mice [6]) was 94% and the ED50 (mice [6]; [14]) was 14.7 mg/kg. For the same molecule, the “Locomotor Activity 8-Hour Time, min Period, length” value (mice [6]) was 350 min, the “Locomotor Activity 8-Hour Time, min Period, max” value (mice [6]) was 0 to 30 min and the Ki ((h)NET [7]) was 4000 nM. It also gave a responders at 5 mg/kg (rats [8]) of 6%, a responders at 10 mg/kg (rats [8]) of 67% and a responders at 25 mg/kg (rats [8]) of 34%. For the same molecule, the responders at 50 mg/kg (rats [8]) was 17%, the responders at 100 mg/kg (rats [8]) was 17% and the “cocaine-appropriate responding (partial generalization)” value (rats [8]; i.p., 5 mg/kg) was 67%. The cocaine-appropriate responding (rats [8]; i.p., 10 mg/kg) was 67%, the “response rate, in words” value (rats [8]; i.p., dose range given in the value) was “affected response rate at 25-100 mg/kg” and the EC50 (serotonin transporter) was 283 nM. The Ki ((h)DAT [9]) was 1150 nM.
